Experimental data reported in the supplement of paper PMC8671470.
Counter-ions that a name gives are not always drawn.

Key:
Conditions in all cases: 72 h
[1] = tested on: HL-60; assay: cell viability (% survival relative to DMSO control); higher = less cytotoxic
Summary of the method: (§1)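 HL-60 cells in RPMI 1640 with 10% FBS were rescreened against the full library on 384-well plates at five tenfold concentrations, 1–10,000 nM, in duplicate. Each screen was run with DMSO or 100 nM of one of three metabolic inhibitors, for 72 h at 37 °C, 5% CO2. Viability was read by CellTiter-Glo and normalised to DMSO and 10 μM proteasome-inhibitor wells. Where given, area under the curve came from four-parameter log-logistic fits (drc, PharmacoGx).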

[2] = tested on: HL-60; assay: area under dose-response curve (viability, 1 nM-10 uM) (fraction (0-1)); higher = more sensitive
Summary of the method: as §1

[3] = tested on: BV-173
Summary of the method: (§2)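 Fifteen myeloid leukaemia lines in RPMI 1640 were treated for 72 h at 37 °C and 5% CO2 with five tenfold doses from 1 to 10,000 nM, in duplicate. ATP luminescence was normalised to vehicle and to a positive control at 10 µM, then fitted with a four-parameter log-logistic model. The IC50 came from these fits.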

[4] = tested on: HEL
Summary of the method: as §2

[5] = tested on: HL-60
Summary of the method: as §2

[6] = tested on: K-562
Summary of the method: as §2

[7] = tested on: KCL-22
Summary of the method: as §2

[8] = tested on: KG-1
Summary of the method: as §2

[9] = tested on: KU-812
Summary of the method: as §2

[10] = tested on: LAMA-84
Summary of the method: as §2

[11] = tested on: ML-2
Summary of the method: as §2

[12] = tested on: MOLM-13
Summary of the method: as §2

[13] = tested on: MV4-11
Summary of the method: as §2

[14] = tested on: Mono-Mac-6
Summary of the method: as §2

[15] = tested on: NOMO-1
Summary of the method: as §2

[16] = tested on: SHI-1
Summary of the method: as §2

[17] = tested on: THP-1
Summary of the method: as §2

[18] = tested on: myeloid leukemia patient primary cells Pat.10; assay: area under dose-response curve (viability, 1 nM-10 uM) (fraction (0-1)); higher = more sensitive
Procedure: (§3)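 AUC (0–1, higher = more sensitive) of the 5-point dose–response (1 nM–10 µM, 72 h, CellTiter-Glo) in primary AML/CML patient mononuclear cells. 0.030103 is the floor for inactive compounds.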

[19] = tested on: myeloid leukemia patient primary cells Pat.11; assay: as above
Procedure: as §3

[20] = tested on: myeloid leukemia patient primary cells Pat.12; assay: as above
Procedure: as §3

[21] = tested on: myeloid leukemia patient primary cells Pat.13; assay: as above
Procedure: as §3

[22] = tested on: myeloid leukemia patient primary cells Pat.14; assay: as above
Procedure: as §3

[23] = tested on: myeloid leukemia patient primary cells Pat.15; assay: as above
Procedure: as §3

[24] = tested on: myeloid leukemia patient primary cells Pat.1; assay: as above
Procedure: as §3

[25] = tested on: myeloid leukemia patient primary cells Pat.2; assay: as above
Procedure: as §3

[26] = tested on: myeloid leukemia patient primary cells Pat.3; assay: as above
Procedure: as §3

[27] = tested on: myeloid leukemia patient primary cells Pat.4; assay: as above
Procedure: as §3

[28] = tested on: myeloid leukemia patient primary cells Pat.5; assay: as above
Procedure: as §3

[29] = tested on: myeloid leukemia patient primary cells Pat.6; assay: as above
Procedure: as §3

[30] = tested on: myeloid leukemia patient primary cells Pat.7; assay: as above
Procedure: as §3

[31] = tested on: myeloid leukemia patient primary cells Pat.8; assay: as above
Procedure: as §3

[32] = tested on: myeloid leukemia patient primary cells Pat.9; assay: as above
Procedure: as §3

Cc1cc(CS(=O)(=O)c2ccccc2)cc(OCc2ccc(CN3CCC[C@@H]3CO)cc2)c1 [PF 543 hydrochloride]
cell viability [%], [1]
Conditions	0.001 µM	0.01 µM	0.1 µM	1 µM	10 µM
co-treatment: AZD3965 100 nM	95.8	101	100.5	95.55	96.1
co-treatment: DMSO vehicle	99.4	100	103	99.8	103
co-treatment: GSK2194069 100 nM	81.7	94.56	96.8	95.1	92.2
co-treatment: pictilisib 100 nM	79.4	97.3	93.9	99.7	96.7

[2]
Conditions	area under dose-response curve
co-treatment: AZD3965 100 nM	< 0.0301
co-treatment: DMSO vehicle	< 0.0301
co-treatment: GSK2194069 100 nM	< 0.0301
co-treatment: pictilisib 100 nM	< 0.0301

CS(=O)(=O)N1CCN(Cc2cc3nc(-c4cccc5[nH]ncc45)nc(N4CCOCC4)c3s2)CC1 [Pictilisib]
Conditions	IC50 (cell viability) [µM]	area under dose-response curve
[3]	> 10	–
[4]	> 10	–
[5]	0.0159	–
[6]	1.27	–
[7]	> 10	–
[8]	> 10	–
[9]	> 10	–
[10]	> 10	–
[11]	9.06	–
[12]	0.969	–
[13]	1.19	–
[14]	> 10	–
[15]	> 10	–
[16]	0.987	–
[17]	> 10	–
[18]	–	0.456
[19]	–	0.0959
[20]	–	< 0.0301
[21]	–	< 0.0301
[22]	–	0.529
[23]	–	0.439
[24]	–	0.538
[25]	–	< 0.0301
[26]	–	0.519
[27]	–	0.294
[28]	–	0.384
[29]	–	0.0368
[30]	–	0.507
[31]	–	0.536
[32]	–	0.257

CCC(C)(C)C(=O)O[C@H]1C[C@@H](C)C=C2C=C[C@H](C)[C@H](CC[C@@H]3C[C@@H](O)CC(=O)O3)[C@H]21 [Simvastatin]
Conditions	IC50 (cell viability) [µM]
[3]	> 10
[4]	> 10
[5]	> 10
[6]	> 10
[7]	> 10
[8]	> 10
[9]	> 10
[10]	> 10
[11]	> 10
[12]	> 10
[13]	> 10
[14]	> 10
[15]	> 10
[16]	> 10
[17]	> 10

CCOC(=O)c1ccc(-c2ccc(OC(=O)N(C)Cc3cccc(-c4ccncc4)c3)cc2)cc1 [WWL 113]
cell viability [%], [1]
Conditions	0.001 µM	0.01 µM	0.1 µM	1 µM	10 µM
co-treatment: AZD3965 100 nM	99.55	98.5	94	97.8	101
co-treatment: DMSO vehicle	106	102	98.3	102.3	102
co-treatment: GSK2194069 100 nM	99.6	96	86.5	97.09	101
co-treatment: pictilisib 100 nM	101.2	103	85.6	96.7	101

CC/C=C\C[C@H]1C(=O)CC[C@@H]1CC(=O)OC [methyl jasmonate]
cell viability [%], [1]
Conditions	0.001 µM	0.01 µM	0.1 µM	1 µM	10 µM
co-treatment: AZD3965 100 nM	98.2	106	100.7	105	106
co-treatment: DMSO vehicle	101	99.7	97.6	102.5	102
co-treatment: GSK2194069 100 nM	95.5	99.5	98.1	93.3	105
co-treatment: pictilisib 100 nM	96.58	104	101	109	99.6

[2]
Conditions	area under dose-response curve
co-treatment: AZD3965 100 nM	< 0.0301
co-treatment: DMSO vehicle	< 0.0301
co-treatment: GSK2194069 100 nM	< 0.0301
co-treatment: pictilisib 100 nM	< 0.0301
